Laboratory results published in patent US10189839B2, “Tricyclic imidazole compounds as inhibitors of tryptophan hydroxylase” (ACTELION PHARMACEUTICALS LTD, priority 2013, dated 2019).

Target: T1, full length human TPH1 (Homo sapiens, UniProt P17752)
T1 construct: To generate the enzyme, full length human TPH1 is cloned into the plasmid pET20b(+); made in house; host or cells: E. coli
T1 sequence (P17752 1-444): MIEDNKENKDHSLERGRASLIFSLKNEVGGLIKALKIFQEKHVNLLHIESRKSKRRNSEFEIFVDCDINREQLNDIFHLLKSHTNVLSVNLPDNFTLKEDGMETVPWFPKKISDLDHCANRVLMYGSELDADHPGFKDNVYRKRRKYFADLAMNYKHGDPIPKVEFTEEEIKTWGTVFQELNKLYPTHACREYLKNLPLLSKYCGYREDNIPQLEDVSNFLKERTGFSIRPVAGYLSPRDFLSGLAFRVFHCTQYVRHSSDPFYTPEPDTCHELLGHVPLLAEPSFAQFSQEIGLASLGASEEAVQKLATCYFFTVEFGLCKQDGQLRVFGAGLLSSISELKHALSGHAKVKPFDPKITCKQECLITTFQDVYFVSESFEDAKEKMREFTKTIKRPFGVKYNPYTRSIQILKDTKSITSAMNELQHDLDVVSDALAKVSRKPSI
Assay: Biochemical in vitro assay using fluorescence readout (TPH1 enzyme activity)
Source text: Inhibitory activities on tryptophan hydroxylase 1 have been measured for each example compound using the following procedure:
Biochemical In Vitro Assay Using Fluorescence Readout
To generate the enzyme, full length human TPH1 is cloned into the plasmid pET20b(+) (Novagen) and expressed in E. coli. The bacterial cells are ruptured by sonication on ice and the lysate is cleared by centrifugation. The resulting protein in the pellet is re-extracted and TPH1 is purified from the obtained lysate by affinity chromatography using a pterin cosubstrate analog immobilized to the resin of the column. The protein is further purified by size exclusion chromatography to remove protein aggregates. The activity of TPH1 is determined by using a fluorescence assay. The enzyme activity assay is carried out at 15° C. with atmosphere oxygen for the duration of 60 minutes in a volume of 64 μl. The reaction is carried out in a 0.1M Tris-HCl buffer, adjusted to pH 7.6, containing 1 mM DTT, 0.2 mg/ml catalase, 100 μM (±)-6-methyl-5,6,7,8-tetrahydropterine dihydrochloride, 40 μM L-tryptophan, and 40-80 nM of TPH1. The reaction is started by bringing together L-tryptophan with all the other reaction substituents and stopped by quenching with perchloric acid (HClO4). The amount of 5-hydroxy-L-tryptophan produced during the enzymatic reaction is determined by fluorescence readout. Fluorescence, as determined at 540 nm when excited at 300 nm wavelength, increases proportionally to the 5-hydroxy-L-tryptophan formed. Compounds are prepared as 10 mM stock solution in DMSO, then diluted in 384-well plates using DMSO followed by a transfer of the dilutions into the assay plate. Fluorescence is measured for each well and the fluorescence at 540 nm wavelength is compared to the fluorescence of the vehicle in place of compound. Inhibitory activities of example compounds with respect to the TPH1 protein are determined by calculating the IC50 value (the concentration of compound needed to inhibit 50% of the enzyme activity). The calculated IC50 values may fluctuate depending on the daily biochemical assay performance. Fluctuations of this kind are known to those skilled in the art. In the case where IC50 values have been determined several times for the same compound, the mean is given.

[1] = Table 1, mean where determined several times

IC50 (Table 2) | IC50 [1] | SMILES
0.015 µM |  | CN(CCO)c1ccc(OCC(=O)N2CCc3nc4n(c3C2c2ccc(Cl)cc2F)CCCC4)c(Cl)n1 (centres unmarked) [Example 1.1.27]
 | 0.009 µM | CC(=O)N1CCn2c(nc3c2C(c2ncc(C4CC4)cc2F)N(C(=O)COc2ccc(N4CCOCC4)nc2Cl)CC3)C1 (centres unmarked) [Example 5.4.6, 1-(7-acetyl-1-(5-cyclopropyl-3-fluoropyridin-2-yl)-3,4,6,7,8,9-hexahydropyrido[4′,3′:4,5]imidazo[1,2-a]pyrazin-2(1H)-yl)-2-((2-chloro-6-morpholinopyridin-3-yl)oxy)ethanone]
 | 0.024 µM | CC(=O)N1CCn2c(nc3c2C(c2sccc2F)N(C(=O)COc2ccc(C(=O)N(C)C)nc2Cl)CC3)C1 (centres unmarked) [Example 5.13.2, 5-(2-(7-acetyl-1-(3-fluorothiophen-2-yl)-3,4,6,7,8,9-hexahydropyrido[4′,3′:4,5]imidazo[1,2-a]pyrazin-2(1H)-yl)-2-oxoethoxy)-6-chloro-N,N-dimethylpicolinamide]
 | 0.018 µM | Cc1ccc(C2c3c(nc4n3CCCC4)CCN2C(=O)COc2ccc(N3CCN(C)CC3)nc2Cl)c(F)c1F (centres unmarked) [Example 1.9.4, 2-((2-chloro-6-(4-methylpiperazin-1-yl)pyridin-3-yl)oxy)-1-(1-(2,3-difluoro-4-methylphenyl)-3,4,6,7,8,9-hexahydroimidazo[1,2-a:5,4-c′]dipyridin-2(1H)-yl)ethanone]
 | 0.003 µM | CN(C)C(=O)c1ccc(OCC(=O)N2CCc3nc4n(c3C2c2ccc(C3CC3)cc2F)CCOC4)c(Cl)n1 (centres unmarked) [Example 6.2.3, 6-chloro-5-(2-(6-(4-cyclopropyl-2-fluorophenyl)-3,4,8,9-tetrahydro-1H-pyrido[4′,3′:4,5]imidazo[2,1-c][1,4]oxazin-7(6H)-yl)-2-oxoethoxy)-N,N-dimethylpicolinamide]
 | 0.014 µM | O=C(NC1CC1)c1ccc(OCC(=O)N2CCc3nc4n(c3C2c2ccc(C3CC3)cc2F)CCS4)c(Cl)n1 (centres unmarked) [Example 4.3.3, 6-chloro-N-cyclopropyl-5-(2-(5-(4-cyclopropyl-2-fluorophenyl)-2,3,7,8-tetrahydrothiazolo[2′,3′:2,3]imidazo[4,5-c]pyridin-6(5H)-yl)-2-oxoethoxy)picolinamide]
 | 0.015 µM | CC(=O)N1CCn2c(nc3c2C(c2ncc(C4CC4)cc2F)N(C(=O)COc2cc(F)c(N4CCOCC4)nc2Cl)CC3)C1 (centres unmarked) [Example 5.4.9, 1-(7-acetyl-1-(5-cyclopropyl-3-fluoropyridin-2-yl)-3,4,6,7,8,9-hexahydropyrido[4′,3′:4,5]imidazo[1,2-a]pyrazin-2(1H)-yl)-2-((2-chloro-5-fluoro-6-morpholinopyridin-3-yl)oxy)ethanone]
 | 0.016 µM | Cc1cnc(C2c3c(nc4n3CCCC4)CCN2C(=O)COc2ccc(N3CCCS3(=O)=O)nc2Cl)c(F)c1 (centres unmarked) [Example 1.6.5, 2-((2-chloro-6-(1,1-dioxidoisothiazolidin-2-yl)pyridin-3-yl)oxy)-1-(1-(3-fluoro-5-methylpyridin-2-yl)-3,4,6,7,8,9-hexahydroimidazo[1,2-a:5,4-c′]dipyridin-2(1H)-yl)ethanone]
 | 0.058 µM | Cc1cnc(C2c3c(nc4n3CCCC4)CCN2C(=O)COc2ccc(NS(C)(=O)=O)nc2Cl)c(F)c1 (centres unmarked) [Example 1.6.1, N-(6-chloro-5-(2-(1-(3-fluoro-5-methylpyridin-2-yl)-3,4,6,7,8,9-hexahydroimidazo[1,2-a:5,4-c′]dipyridin-2(1H)-yl)-2-oxoethoxy)pyridin-2-yl)methanesulfonamide]
 | 0.008 µM | CCc1nc(NS(C)(=O)=O)ccc1OCC(=O)N1CCc2nc3n(c2C1c1sc(C)nc1C)CCCC3 (centres unmarked) [Example 1.10.13, N-(5-(2-(1-(2,4-dimethylthiazol-5-yl)-3,4,6,7,8,9-hexahydroimidazo[1,2-a:5,4-c′]dipyridin-2(1H)-yl)-2-oxoethoxy)-6-ethylpyridin-2-yl)methanesulfonamide]
 | 0.077 µM | Cc1nc(C)c(C2c3c(nc4n3CCCC4)CCN2C(=O)COc2ccc(C#N)nc2Cl)s1 (centres unmarked) [Example 1.10.6, 6-chloro-5-(2-(1-(2,4-dimethylthiazol-5-yl)-3,4,6,7,8,9-hexahydroimidazo[1,2-a:5,4-c′]dipyridin-2(1H)-yl)-2-oxoethoxy)picolinonitrile]
